The record followed here is ChEMBL document CHEMBL6127009, “Discovery of L15 as a novel Vif PROTAC degrader with antiviral activity against HIV-1” (Bioorg Med Chem Lett, 2024).

Calls of active or inactive are those of the source. The rule behind the calls is not given here. Some results are limits rather than exact numbers.

The subject of data set [1] is Human immunodeficiency virus 1. The data set can be described thus: Antiviral activity against HIV-1 IIIB infected in C8166 cells. The following applies: Human immunodeficiency virus 1, IIIB. Type of data set: functional, organism-based.
Data set [2] deals with Human immunodeficiency virus 1. The data set is described as follows: Antiviral activity against HIV-1 4755-5 infected in C8166 cells. Type of data set: functional, organism-based. The following applies: Human immunodeficiency virus 1, 4755-5, C8166.
Data set [3] has as its system Human immunodeficiency virus 1. The data set can be described thus: Antiviral activity against HIV-1 G140S/Q148H infected in C8166 cells. Type of data set: functional, organism-based. The following applies: Human immunodeficiency virus 1, G140S/Q148H.
For data set [4], the system named is Human immunodeficiency virus 1. The data set is described as follows: Antiviral activity against HIV-1 A17 infected in C8166 cells. Type of data set: functional, organism-based. The following applies: Human immunodeficiency virus 1, A17, C8166.
Data set [5] deals with Human immunodeficiency virus 1. The data set is described as follows: Antiviral activity against HIV1 at 1 uM measured after 2 to 4 hrs. Type of data set: functional, organism-based. The following applies: time 2-4 hrs.
Data set [6] concerns Human immunodeficiency virus 1. The data set is described as follows: Antiviral activity against HIV-1 KIZ002 infected in PHA-P stimulated PBMCs. Type of data set: functional, organism-based. The following applies: Human immunodeficiency virus 1, KIZ002, PBMC.
Data set [7] relates to Human immunodeficiency virus 1. The data set is described as follows: Antiviral activity against HIV1 at 1 uM measured after 8 hrs. Type of data set: functional, organism-based.
In data set [8] the test system is Human immunodeficiency virus 1. The data set can be described thus: Antiviral activity against HIV-1 WAN infected in PHA-P stimulated PBMCs. Type of data set: functional, organism-based. The following applies: Human immunodeficiency virus 1, WAN, PBMC.
Data set [9] in a line: Cytotoxicity against human PBMCs. Type of data set: toxicity, cell-based, PBMC.
Data set [10] relates to Human immunodeficiency virus 1. The data set can be described thus: Antiviral activity against HIV-1 9498 infected in C8166 cells. Type of data set: functional, organism-based. The following applies: Human immunodeficiency virus 1, 9498, C8166.
In data set [11] the test system is Human immunodeficiency virus 1. The data set is described as follows: Antiviral activity against HIV-1 2802 infected in C8166 cells. Type of data set: functional, organism-based. The following applies: Human immunodeficiency virus 1, 2802, C8166.
Data set [12] concerns the target T1, Protein cereblon/Virion infectivity factor (Human immunodeficiency virus type 1 group M subtype B (isolate NY5)(HIV-1)) (UniProt Q96SW2+P12504). The data set is described as follows: PROTAC activity at CRBN (unknown origin)/Vif in HIV-1 TREX-hvif-15 cells assessed as reduction in Vif protein level incubated for 24 hrs by Western blotting analysis. The following applies: TREX-hvif-15 cell, dose 3.125-50 µM. Type of data set: cell-based. (In general: A western blot detects proteins with antibodies after separation by electrophoresis.)

In data set [13] the target is T1, Protein cereblon/Virion infectivity factor (Human immunodeficiency virus type 1 group M subtype B (isolate NY5)(HIV-1)). The data set can be described thus: PROTAC activity at CRBN (unknown origin)/Vif in HIV-1 TREX-hvif-15 cells assessed as reduction in Vif protein level at 100 uM incubated for 24 hrs by Western blotting analysis. Type of data set: cell-based. Further details: scale not given: the % may be the effect or the level left. The following applies: TREX-hvif-15 cell.

The target is the same in data set [14]. The data set can be described thus: PROTAC activity at CRBN (unknown origin)/Vif in HIV-1 TREX-hvif-15 cells assessed as reduction in Vif protein level at 50 uM by Western blotting analysis. Type of data set: cell-based. The following applies: TREX-hvif-15 cell.
Data set [15] has the same target. The data set is described as follows: PROTAC activity at CRBN (unknown origin)/Vif in HIV-1 TREX-hvif-15 cells assessed as reduction in Vif protein level at 50 uM pretreated with MG132 followed by compound addition and measured after 24 hrs by Western blotting analysis. The following applies: TREX-hvif-15 cell. Type of data set: cell-based.
Data set [16] concerns Human immunodeficiency virus 1. The data set is described as follows: Antiviral activity against HIV1 at 50 uM measured after 8 hrs. Type of data set: functional, organism-based.
Data set [17] can be described thus: Cytotoxicity against human TZM-bl cells. Type of data set: toxicity, cell-based.
Data set [18] is described as follows: Therapeutic index, ratio of CC50 for human TZM-bl cells to EC50 for HIV IIIB infected in TZM-bl cells. Type of data set: toxicity, cell-based. The following applies: read-out: Ratio CC50/EC50.
Data set [19] has as its system Human immunodeficiency virus 1. The data set can be described thus: Antiviral activity against HIV-1 IIIB infected in TZM-bl cells. Type of data set: functional, organism-based. The following applies: Human immunodeficiency virus 1, IIIB.

T1 sequence (P12504 whole entry, looked up): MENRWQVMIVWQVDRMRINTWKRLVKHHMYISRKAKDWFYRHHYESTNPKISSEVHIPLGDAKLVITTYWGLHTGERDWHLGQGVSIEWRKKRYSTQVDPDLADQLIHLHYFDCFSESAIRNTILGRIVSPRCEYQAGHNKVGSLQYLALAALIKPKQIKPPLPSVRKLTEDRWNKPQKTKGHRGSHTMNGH
T1 sequence (Q96SW2 whole entry, looked up): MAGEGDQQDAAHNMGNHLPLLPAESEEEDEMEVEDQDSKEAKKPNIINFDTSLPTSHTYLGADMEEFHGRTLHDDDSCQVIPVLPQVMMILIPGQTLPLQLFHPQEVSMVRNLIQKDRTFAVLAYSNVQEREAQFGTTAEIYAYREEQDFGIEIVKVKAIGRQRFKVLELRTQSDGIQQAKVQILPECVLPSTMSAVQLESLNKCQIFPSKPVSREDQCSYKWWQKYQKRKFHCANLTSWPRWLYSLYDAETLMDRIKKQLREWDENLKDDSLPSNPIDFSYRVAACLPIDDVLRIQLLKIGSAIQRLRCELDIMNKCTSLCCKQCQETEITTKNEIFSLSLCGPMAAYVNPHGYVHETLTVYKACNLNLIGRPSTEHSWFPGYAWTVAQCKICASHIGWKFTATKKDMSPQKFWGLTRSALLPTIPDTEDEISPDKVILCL

What is called EC50 is the concentration at which the effect is half-maximal. Consider `Nc1ccn([C@@H]2CS[C@H](CO)O2)c(=O)n1` [LAMIVUDINE], for which the EC50 worked out at 0.16 µM in [1]; 76.9 µM in data set [2]; 5.61 µM in data set [3]; 0.28 µM in data set [4]; 0.09 µM in data set [6]; 0.15 µM in data set [8]. Further, the result in data set [5] was Active. Besides, the outcome in data set [7] was inactive.
Usually CC50 stands for the concentration giving 50% cytotoxicity. `COc1ccc(OCC(=O)NCCOCCOCCNc2cccc3c2C(=O)N(C2CCC(=O)NC2=O)C3=O)cc1NC(=O)c1c(N)cccc1Sc1ccc([N+](=O)[O-])cc1` (stereo not given): the CC50 in data set [9] and in data set [17] was over 200 µM each time. Also, the EC50 in data set [10] was 9.65 µM; in data set [1] it was 10.5 µM; in data set [11] it was 7.3 µM; in data set [2], 13.6 µM; in data set [3] it was 8.43 µM; in [4] it was over 100 µM. Further, the EC50 came to 10.5 µM in data set [6], 8.76 µM in data set [8] and 33.4 µM in [19]. The Activity entry is “Dose-Dependent Effect” in data set [12] and 100% in data set [13]. Besides, the outcome in [14] and in data set [16] was Active. The result in data set [15] was inactive. Also, in data set [18], the selectivity ratio is over 6.
